Assay results: article PMC8557901 (Microbiology Spectrum, 2021)
Where two headings read alike, the source gives them in different places.

What was measured:
[1] = test system: P. falciparum sporozoites invading primary human hepatocytes; assay: Hepatocyte invasion by preincubated P. falciparum sporozoites; details: Plasmodium falciparum, Hepatocyte, in Homo sapiens, sporozoites preincubated 1 h; for inhibition at 1 µM: read-out: inhibition of invasion of sporozoites into hepatocytes, 1 μM; for inhibition at 10 µM: read-out: inhibition of invasion of sporozoites into hepatocytes, 10 μM; for inhibition at 100 µM: read-out: inhibition of invasion of sporozoites into hepatocytes, 100 μM
Method: On the day of infection, 3 · 10^4 sporozoites of P. falciparum, P. yoelii, and P. cynomolgi were added to their respective host cell cultures (human, murine, and simian). The infected culture plates were centrifuged for 10 min at 900 × g, allowing fast parasite sedimentation, and further incubated with serial dilutions of M1. Culture medium containing the appropriate drug concentration was refreshed daily, and cells were fixed at 48 h postinfection (p.i.) for infections with P. yoelii, 6 days p.i. for P. falciparum, or 8 days p.i. for P. cynomolgi. For the in vitro sporozoite invasion experiments, P. falciparum sporozoites were preincubated with 1, 10, and 100 μM M1 for 1 h at room temperature before hepatocyte infections. Three hours later, after sporozoite penetration into hepatocytes, cultures were washed and then further incubated with or without the presence of the drug during 6 days. DMSO was used as a negative control.
The number, size, and shape of the parasites were determined using a CellInsight high-content screening platform equipped with Studio HCS software (ThermoFisher Scientific). […] Host cell and parasite nuclei were labeled with DAPI (4′,6-diamidino-2-phenylindole). […] The custom script used for counting and measuring parasites first required identification of the objects based on a fluorescence intensity threshold. The object identity was then further validated based on size and morphological (shape) criteria. The presence of DAPI-associated fluorescence in the selected objects allowed their final selection and the rejection of false positives. […] The parasitic size reduction was calculated on the average object area using the total surface area of each selected object (μm^2).

[2] = Cytotoxicity on HepG2 cell line (MTT); type: cell-based; details: human, HepG2 cells
Method: The evaluation of the cytotoxicity of the tested molecules on the HepG2 cell line was performed according to the method of Mosman ([42]) with slight modifications. […] Triplicate assays were performed for each sample. Each well was then examined under a microscope to detect possible precipitate formation before the medium was aspirated from the wells. An amount of 100 μl of MTT solution (0.5 mg/ml in medium without FBS) was then added to each well. […] After this time, the MTT solution was removed and DMSO (100 μl) was added to dissolve the resulting blue formazan crystals. Plates were shaken vigorously (700 rpm) for 10 min. The absorbance was measured at 570 nm with 630 nm as the reference wavelength using a Tecan Infinite F-200 microplate reader. DMSO was used as a blank and doxorubicin as a positive control. Cell viability was calculated as the percentage compared to the control (cells incubated without compound). […] CC50 values represent the mean values calculated from three independent experiments.

[3] = test system: P. falciparum F32-ART5 (artemisinin-resistant); assay: Standard in vitro chemosensitivity assay (hypoxanthine uptake), F32-ART5; type: cell-based; details: Plasmodium falciparum, F32, 48 h, read-out: Mean EC50 ± SD
Method: The Plasmodium falciparum artemisinin-resistant strain F32-ART5 and its twin artemisinin-sensitive line F32-TEM ([30], [31]) were cultivated at 37°C with 5% CO2 in human red blood cells (EFS [French Blood Bank]) diluted to 2% hematocrit in RPMI 1640 medium supplemented with 5% human serum (EFS) as previously reported ([47]).
In vitro susceptibility of P. falciparum parasites was determined by using the standard hypoxanthine uptake inhibition assay as described previously ([51]) with some modifications ([52]). After D-sorbitol treatment, parasites synchronized at the ring stage were exposed for 48 h, with [^3H]hypoxanthine (Perkin Elmer, France), to a range of concentrations of the different tested compounds. […] Each result represents 3 independent experiments.

[4] = molecular target: T1, hERG channel (Homo sapiens, UniProt Q12809); assay: Predictor hERG fluorescence polarization binding assay; details: 0.01 nM to 100 µM
T1 construct: purchased ThermoFischer PV5665
Method: hERG channel binding was determined with the PredictorTM hERG Fluorescence Polarization Assay (PV5665 ThermoFischer). Briefly, reagents were thawed, and were mixed by pipetting 20x with PredictorTM hERG membranes. The fluorescent tracer was diluted at 4 nM in the PredictorTM hERG buffer. […] The assay was performed in a 96-well Greiner microplate (675093 Dutscher). 25 µL of each concentration of M1 were dispensed into the plate. Then, 50 µL of the PredictorTM hERG membranes and 25 µL of the fluorescent tracer 4 nM were added. The plate was incubated at room temperature for 4 h. The fluorescence polarization measurements were made using a Synergy 2 microplate reader (Biotek Instrument, Colmar, France). Both parallel and perpendicular fluorescence were measured using 530/25 nm excitation and 590/35 nm emission filters with a 570 nm dichroic mirror. The gain was fixed at 110. A known hERG channel blocker (E-4031), provided by the kit, was assayed as positive reference. Both E-4031 and M1 were tested at final concentrations ranging from 0.01 nM to 100 µM. IC50 values were determined graphically by plotting the % inhibition versus the logarithm of 9 M1 concentrations in the assay solution using the GraphPad Prism software (version 6.01, GraphPad Software, La Jolla, CA, USA).

[5] = cultures additionally treated until day 6
[6] = cultures then without drug for 6 days

T1 sequence (Q12809 whole entry): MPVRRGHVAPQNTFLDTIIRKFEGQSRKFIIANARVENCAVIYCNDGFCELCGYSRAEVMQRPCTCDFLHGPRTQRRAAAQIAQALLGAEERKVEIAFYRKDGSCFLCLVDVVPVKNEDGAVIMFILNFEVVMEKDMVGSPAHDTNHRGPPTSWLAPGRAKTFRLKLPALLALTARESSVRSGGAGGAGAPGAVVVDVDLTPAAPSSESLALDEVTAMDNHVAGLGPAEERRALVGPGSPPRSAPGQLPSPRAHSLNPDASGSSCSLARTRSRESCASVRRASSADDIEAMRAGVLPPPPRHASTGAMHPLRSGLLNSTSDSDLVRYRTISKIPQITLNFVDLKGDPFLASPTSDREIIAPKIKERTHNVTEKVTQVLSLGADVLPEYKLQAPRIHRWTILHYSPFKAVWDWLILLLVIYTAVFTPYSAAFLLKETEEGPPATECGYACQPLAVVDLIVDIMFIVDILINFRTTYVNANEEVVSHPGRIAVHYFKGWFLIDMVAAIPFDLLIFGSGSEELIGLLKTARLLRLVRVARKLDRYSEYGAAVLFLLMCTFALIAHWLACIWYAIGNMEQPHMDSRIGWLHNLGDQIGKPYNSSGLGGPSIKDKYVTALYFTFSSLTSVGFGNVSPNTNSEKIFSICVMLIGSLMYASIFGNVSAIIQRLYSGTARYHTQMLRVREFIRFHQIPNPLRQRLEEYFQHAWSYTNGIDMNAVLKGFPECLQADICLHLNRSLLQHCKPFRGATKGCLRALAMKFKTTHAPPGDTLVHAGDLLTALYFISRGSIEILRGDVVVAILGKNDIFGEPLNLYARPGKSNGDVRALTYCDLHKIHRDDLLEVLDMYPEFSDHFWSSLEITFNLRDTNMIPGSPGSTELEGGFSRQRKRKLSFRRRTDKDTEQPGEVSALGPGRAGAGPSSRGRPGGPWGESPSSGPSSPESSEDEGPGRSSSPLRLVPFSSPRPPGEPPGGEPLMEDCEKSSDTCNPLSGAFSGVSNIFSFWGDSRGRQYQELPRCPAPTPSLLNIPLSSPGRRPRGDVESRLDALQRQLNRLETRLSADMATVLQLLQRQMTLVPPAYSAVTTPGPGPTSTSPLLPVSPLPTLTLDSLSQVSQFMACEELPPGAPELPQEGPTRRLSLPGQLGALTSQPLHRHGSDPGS

`Cc1ccc(-c2cc3nc(NC(C)(C)C)[nH]c(=O)c3s2)cc1` [Metabolite M1, 2-(tert-Butylamino)-6-(p-tolyl)thieno[3,2-d]pyrimidin-4(3H)-one] showed an inhibition at 1 µM [1, 5] of 80%, an inhibition at 1 µM [1, 6] of 30% and an inhibition at 10 µM [1, 5] of 100%. For the same compound, the inhibition at 10 µM [1, 6] was 60%, the inhibition at 100 µM [1, 5] was 100% and the inhibition at 100 µM [1, 6] was about 100%. For the same compound, the CC50 at 72 h [2] was 24 µM, the EC50 [3] was 0.227 ± 0.04 µM and the “binding toward the hERG channel” value [4] was “no affinity”.
